Data from patent US20110044938A1 (NYCOMED GMBH, priority 2006, published 2011).

Key:
[1] = tested on: subclones of RKO colon adenocarcinoma cells (RKOp27 or RKOp21) arrested by Ponasterone A; assay: Alamar Blue cell viability assay, cell cycle specific mode of action: cells arrested by ectopic p27Kip1 induced by Ponasterone A versus proliferating cells; type: cell-based; conditions: Homo sapiens, RKO p27 induced (arrested) cells, 10 μM Ponasterone A, 72 hours, value = class bound given in Table A, read-out: −logIC50 RKO p27 induced (arrested) (converted)
In short: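 RKOp27 or RKOp21 cells, 15000/well in DMEM/10% FCS, either arrested by p27Kip1 induced with 10 μM Ponasterone A or proliferating without inducer; compound added after 24 h, 72 h at 37° C. Alamar Blue fluorescence (544/590 nm), viability as % of untreated cells; −log IC50 reported.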

[2] = tested on: RKO (RKOp27) human colon adenocarcinoma cells; assay: Alamar Blue cell viability assay, anti-proliferative/cytotoxic activity on proliferating RKO subclones; type: cell-based; conditions: RKOp27, 72 h, RKO p27 uninduced (proliferating) cells, value = class bound given in Table A, read-out: −logIC50 RKO p27 uninduced (proliferating) (converted)
In short: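 RKOp27 subclones (5000 cells/well) were exposed 24 h after seeding to semi-log compound dilutions in DMEM with 10% FCS, in quadruplicate, for 72 h at 37 °C. Viability was read by Alamar Blue fluorescence (544/590 nm) relative to untreated cells (1% DMSO medium). IC50 came from concentration-effect curves and is reported as −log IC50 [mol/l].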

IC50 [1] [µM]	Structure (SMILES)	IC50 [2] [µM]
≥ 100	COc1cccc(C(C)CC(=O)Nc2sc3c(c2C#N)CCC(OC(=O)NCc2cccnc2)C3)c1 (stereo not shown) [Example 268, Pyridin-3-ylmethyl-carbamic acid 3-cyano-2-[3-(3-methoxy-phenyl)-butanoylamino]-4,5,6,7-tetrahydro-benzo[b]thiophen-6-yl ester]	0.501 to 2
≥ 100	COc1cccc(C(C)CC(=O)Nc2sc3c(c2C#N)CCC(OC(=O)NCc2cncn2C)C3)c1 (stereo not shown) [Example 272, (3-Methyl-3H-imidazol-4-ylmethyl)-carbamic acid 3-cyano-2-[3-(3-methoxy-phenyl)-butanoylamino]-4,5,6,7-tetrahydro-benzo[b]thiophen-6-yl ester]	0.501 to 2
≥ 100	CCNC(=O)OCC1CCc2c(sc(NC(=O)CC(C)c3cccnc3)c2C#N)C1 (stereo not shown) [Example 278, Ethyl-carbamic acid 3-cyano-2-(3-pyridin-3-yl-butanoylamino)-4,5,6,7-tetrahydro-benzo[b] thiophen-6-ylmethyl ester]	0.501 to 2
≥ 50.1	COc1cccc(C(C)CC(=O)Nc2sc3c(c2C#N)CCC(OC(=O)NCCn2ccnc2)C3)c1 (stereo not shown) [Example 280, (2-Imidazol-1-yl-ethyl)-carbamic acid 3-cyano-2-[3-(3-methoxy-phenyl)-butanoylamino]-4,5,6,7-tetrahydro-benzo[b] thiophen-6-yl ester]	0.501 to 2
≥ 100	CC(CC(=O)Nc1sc2c(c1C#N)CCC(COC(=O)NCc1cnn(C)c1)C2)c1cccnc1 (stereo not shown) [Example 281, (1-Methyl-1H-pyrazol-4-ylmethyl)-carbamic acid 3-cyano-2-(3-pyridin-3-yl-butanoyl-amino)-4,5,6,7-tetrahydro-benzo[b] thiophen-6-ylmethyl ester]	0.501 to 2
≥ 100	Cc1cc(CNC(=O)OCC2CCc3c(sc(NC(=O)CC(C)c4cccnc4)c3C#N)C2)no1 (stereo not shown) [Example 282, (5-Methyl-isoxazol-3-ylmethyl)-carbamic acid 3-cyano-2-(3-pyridin-3-yl-butanoylamino)-4,5,6,7-tetrahydro-benzo[b]thiophen-6-ylmethyl ester]	≤ 0.501
≥ 100	CC(CC(=O)Nc1sc2c(c1C#N)CCC(COC(=O)NC(C)c1ccccc1)C2)c1cccnc1 (stereo not shown) [Example 283, (1-Phenyl-ethyl)-carbamic acid 3-cyano-2-(3-pyridin-3-yl-butanoylamino)-4,5,6,7-tetrahydro-benzo[b]thiophen-6-ylmethyl ester]	0.501 to 2
≥ 50.1	CC(CC(=O)Nc1sc2c(c1C#N)CCC(COC(=O)NC(C)c1cccnc1)C2)c1cccnc1 (stereo not shown) [Example 284, (1-Pyridin-3-yl-ethyl)-carbamic acid 3-cyano-2-(3-pyridin-3-yl-butanoyl-amino)-4,5,6,7-tetrahydro-benzo[b]thiophen-6-ylmethyl ester]	0.501 to 2
≥ 50.1	CC(CC(=O)Nc1sc2c(c1C#N)CCC(COC(=O)NCc1cccn1C)C2)c1cccnc1 (stereo not shown) [Example 285, (1-Methyl-1H-pyrrol-2-ylmethyl)-carbamic acid 3-cyano-2-(3-pyridin-3-yl-butanoylamino)-4,5,6,7-tetrahydro-benzo[b]thiophen-6-ylmethyl ester]	0.501 to 2
≥ 100	CCn1nccc1CNC(=O)OC1CCc2c(sc(NC(=O)CC(C)c3cccc(OC)c3)c2C#N)C1 (stereo not shown) [Example 286, (2-Ethyl-2H-pyrazol-3-ylmethyl)-carbamic acid 3-cyano-2-[3-(3-methoxy-phenyl)-butanoylamino]-4,5,6,7-tetrahydro-benzo[b] thiophen-6-yl ester]	≤ 0.501
≥ 10	CC(CC(=O)Nc1sc2c(c1C#N)CCC(OC(=O)NCc1cccnc1)C2)c1ccccc1 (stereo not shown) [Example 288, Pyridin-3-ylmethyl-carbamicacid 3-cyano-2-(3-phenyl-butanoyl-amino)-4,5,6,7-tetrahydro-benzo[b]thiophen-6-yl ester]	≤ 0.501
≥ 10	CC(CC(=O)Nc1sc2c(c1C#N)CCC(OC(=O)NCCc1cccnc1)C2)c1ccccc1 (stereo not shown) [Example 290, (2-Pyridin-3-yl-ethyl)-carbamic acid 3-cyano-2-(3-phenyl-butanoyl-amino)-4,5,6,7-tetrahydro-benzo[b]thiophen-6-yl ester]	≤ 0.501
≥ 10	CC(CC(=O)Nc1sc2c(c1C#N)CCC(OC(=O)NCc1nccn1C)C2)c1ccccc1 (stereo not shown) [Example 292, (1-Methyl-1H-imidazol-2-ylmethyl)-carbamic acid 3-cyano-2-(3-phenyl-butanoylamino)-4,5,6,7-tetrahydro-benzo[b] thiophen-6-yl ester]	0.501 to 2
≥ 50.1	CC(CC(=O)Nc1sc2c(c1C#N)CCC(OC(=O)NCc1ccnn1C)C2)c1ccccc1 (stereo not shown) [Example 293, (2-Methyl-2H-pyrazol-3-ylmethyl)-carbamic acid 3-cyano-2-(3-phenyl-butanoylamino)-4,5,6,7-tetrahydro-benzo[b] thiophen-6-yl ester]	≤ 0.501

Second part, the compound before the results:

Structure (SMILES)	IC50 [1] [µM]	IC50 [2] [µM]
COc1cccc(CCC(=O)Nc2sc3c(c2C#N)CCC(OC(=O)OCc2cncs2)C3)c1 (stereo not shown) [Example 266, Carbonic acid 3-cyano-2-[3-(3-methoxy-phenyl)-propanoylamino]-4,5,6,7-tetrahydro-benzo[b]thiophen-6-yl ester thiazol-5-ylmethyl ester]	≥ 50.1	0.501 to 2
CC(CC(=O)Nc1sc2c(c1C#N)CCC(OC(=O)NCC1CCOCC1)C2)c1ccccc1 (stereo not shown) [Example 267, (Tetrahydro-pyran-4-ylmethyl)-carbamic acid 3-cyano-2-(3-phenyl-butanoylamino)-4,5,6,7-tetrahydro-benzo[b]thiophen-6-yl ester]	≥ 50.1	≤ 0.501
COc1cccc(C(C)CC(=O)Nc2sc3c(c2C#N)CCC(OC(=O)NCc2ccncc2)C3)c1 (stereo not shown) [Example 269, Pyridin-4-ylmethyl-carbamic acid 3-cyano-2-[3-(3-methoxy-phenyl)-butanoylamino]-4,5,6,7-tetrahydro-benzo[b]thiophen-6-yl ester]	≥ 100	0.501 to 2
COc1cccc(C(C)CC(=O)Nc2sc3c(c2C#N)CCC(OC(=O)NCC2CCOCC2)C3)c1 (stereo not shown) [Example 270, (Tetrahydro-pyran-4-ylmethyl)-carbamic acid 3-cyano-2-[3-(3-methoxy-phenyl)-butanoyl-amino]-4,5,6,7-tetrahydro-benzo[b]thiophen-6-yl ester]	≥ 100	0.501 to 2
COc1cccc(C(C)CC(=O)Nc2sc3c(c2C#N)CCC(OC(=O)NC2CCOCC2)C3)c1 (stereo not shown) [Example 271, (Tetrahydro-pyran-4-yl)-carbamic acid 3-cyano-2-[3-(3-methoxy-phenyl)-butanoylamino]-4,5,6,7-tetrahydro-benzo[b] thiophen-6-yl ester]	≥ 100	0.501 to 2
COc1cccc(C(C)CC(=O)Nc2sc3c(c2C#N)CCC(OC(=O)NCc2cc(C)nn2C)C3)c1 (stereo not shown) [Example 273, (2,5-Dimethyl-2H-pyrazol-3-ylmethyl)-carbamic acid 3-cyano-2-[3-(3-methoxy-phenyl)-butanoylamino]-4,5,6,7-tetrahydro-benzo[b] thiophen-6-yl ester]	≥ 100	≤ 0.501
COc1cccc(C(C)CC(=O)Nc2sc3c(c2C#N)CCC(OC(=O)NCc2cnn(C)c2)C3)c1 (stereo not shown) [Example 274, (1-Methyl-1H-pyrazol-4-ylmethyl)-carbamic acid 3-cyano-2-[3-(3-methoxy-phenyl)-butanoylamino]-4,5,6,7-tetrahydro-benzo[b] thiophen-6-yl ester]	≥ 100	0.501 to 2
COc1cccc(C(C)CC(=O)Nc2sc3c(c2C#N)CCC(OC(=O)NCc2cn(C)nc2C)C3)c1 (stereo not shown) [Example 276, (1,3-Dimethyl-1H-pyrazol-4-ylmethyl)-carbamic acid 3-cyano-2-[3-(3-methoxy-phenyl)-butanoylamino]-4,5,6,7-tetrahydro-benzo[b]thiophen-6-yl ester]	≥ 100	≤ 0.501
COc1cccc(C(C)CC(=O)Nc2sc3c(c2C#N)CCC(OC(=O)NCc2ccnn2C)C3)c1 (stereo not shown) [Example 277, (2-Methyl-2H-pyrazol-3-ylmethyl)-carbamic acid 3-cyano-2-[3-(3-methoxy-phenyl)-butanoylamino]-4,5,6,7-tetrahydro-benzo[b] thiophen-6-yl ester]	≥ 100	≤ 0.501
CC(CC(=O)Nc1sc2c(c1C#N)CCC(OC(=O)NCc1ccccn1)C2)c1ccccc1 (stereo not shown) [Example 287, Pyridin-2-ylmethyl-carbamic acid 3-cyano-2-(3-phenyl-butanoylamino)-4,5,6,7-tetrahydro-benzo[b] thiophen-6-yl ester]	≥ 10	0.501 to 2
CC(CC(=O)Nc1sc2c(c1C#N)CCC(OC(=O)NCc1ccncc1)C2)c1ccccc1 (stereo not shown) [Example 289, Pyridin-4-ylmethyl-carbamic acid 3-cyano-2-(3-phenyl-butanoylamino)-4,5,6,7-tetrahydro-benzo[b] thiophen-6-yl ester]	≥ 10	≤ 0.501
CC(CC(=O)Nc1sc2c(c1C#N)CCC(OC(=O)NC1CCOCC1)C2)c1ccccc1 (stereo not shown) [Example 291, (Tetrahydro-pyran-4-yl)-carbamic acid 3-cyano-2-(3-phenyl-butanoyl-amino)-4,5,6,7-tetrahydro-benzo[b]thiophen-6-yl ester]	≥ 10	≤ 0.501
